Measured values from US20250120932A1, “PHARMACEUTICAL COMPOSITION” (NEUROPRO THERAPEUTICS, INC., priority 2021, published 2025).
“And” between values parts separate entries of the source, which are not always exact repeats. Identical values can stand only once. Like-named read-outs stand apart in the source and are kept apart here.

How the values were obtained:
[1] = Crossover pharmacokinetic study of Bumetanide Dibenzylamide formulations (IN, SL, IM, PO, SC, IR) in Beagle dogs, plasma LC-MS/MS; format: in vivo; conditions: for half-life: read-out: t½ (converted)
Protocol: Male and female Beagle dogs are assigned to two groups with 2 males and 2 females in each group. The study is conducted in 3 legs with Leg 1 consisting of IM and SL administration, Leg 2 consisting of IN and PO administration, and Leg 3 consisting of SC and IR administration.
During intranasal administration, the composition is administered by gently tilting the animals head back and the intranasal dose is delivered via a syringe and atomizer. During sublingual administration, the composition is administered via a quick dissolving tablet. The tablet is placed in the sublingual space and the mouth held shut for approximately 60-90 seconds. After one minute, the mouth of the animal is opened to confirm that the tablet has fully dissolved. During intramuscular administration, the composition is administered into the bicep femoris (rear thigh). The dose site is gently shaved prior to dosing. A syringe with a 25 g needle is utilized. During oral administration, the composition is administered via three capsules placed at the back of the animal's mouth and the placement is followed by a 10 mL drinking water flush to assure that the animal swallowed the capsules. During subcutaneous administration, the composition is administered into the dorsal subcutaneous space directly at the scruff of the neck of the animal. The dose site is gently shaved prior to dosing. A syringe with a 25 g needle is utilized. During intrarectal administration, the composition is administered by gently placing a 1 cc syringe in the rectum of the animal.
All animals are fasted for approximately 12 hours prior to dosing. Animals are fed four hours post dosing with water offered ad libitum throughout the study. All animals completed the study. […] Blood and urine samples are collected out to 24 hours.
Blood sample are collected from the jugular vein, or other suitable vessel via direct venipuncture, placed into a chilled tube containing K2EDTA as the anticoagulant, and inverted several times to mix. Blood samples are kept on wet ice until centrifugation.
The assay is verified with respect to standard bioanalytical methodology including acceptable accuracy and precision based upon quality control sample analysis and results. The range of the method for both analytes is from about 0.250 ng/ml to about 250 ng/mL.
The PK parameters defined in Table 10 are calculated by non-compartmental methods using individual animal concentration-time data. […] Nominal blood sampling times are used in the analysis. […] Individual below quantitation limits (BQL) results are set to zero for all calculations. No animals are excluded from the analysis. In one aspect, non-compartmental pharmacokinetic analysis provides observed or calculated values of Cmax, Tmax, and AUClast for all animals and estimates of AUCinf and CL/F for those animals where a terminal phase half-life (t1/2) could be estimated.

[2] = Effect of water content on solubility (formulations F1-F3); format: physicochemical
Protocol: Increasing amounts of PVP and Poloxamer were added to compositions F1-F3 to inhibit rapid precipitation upon dilution in water.
The solutions were then cooled to ambient room temperature and mixed for ˜4 hours prior to filtering and being evaluated by an assay.

physchem = test: physchem
Source text: Crucial to the efficacy of any treatment by a pharmaceutical composition is the overall systemic bioavailability of the pharmaceutical composition used for said treatment. […] LogP is one measure of lipophyilicity, and is the octal:water partition coefficient expressed as a log ratio of molecule in octanol relative to water after mixing.

[3] = Pharmacokinetic profile after single intravenous or oral gavage dose in rats; conditions: for C0: back predicted to time 0
Protocol: Animals were dosed via oral gavage or intravenous injection once on Day 1 at a volume of 5 mL/kg for Group 1 and 10 mL/kg for Group 2. The vehicle was 40% (v/v) Polyethylene Glycol 400 (PEG400), 20% (v/v) Propylene Glycol, 5% (v/v) Ethanol, and 35% (v/v) water for Group 1 and the vehicle was 0.5% (w/v) Carboxymethylcellulose (medium viscosity) in reverse osmosis water for Group 2.
Blood samples (approximately 0.5 mL) were collected from nonfasted toxicokinetic animals via a jugular vein on Day 1 of the dosing phase, as indicated in Table 18
Blood was collected into tubes containing potassium (K2) EDTA as the anticoagulant. Samples were maintained on wet ice and were centrifuged within 30 minutes of collection. Plasma was harvested and stored on dry ice until placed in a freezer, set to maintain −60 to −80° C., until shipped on dry ice to Origin Bioanalytical Laboratory, Inc. for analysis.
Pharmacokinetic parameters were derived using non-compartmental methods employing Phoenix WinNonlin® version 8.1 (Pharsight Corp; St. Louis, MO). The PK parameters defined previously in Table 10 were calculated by non-compartmental methods using composite plasma concentration-time data obtained from 3 rats/sex/time point/dose. The area under the concentration-time curve from zero time (pre-dose) to the last time point was calculated by a combination of linear and logarithmic trapezoidal methods. The linear trapezoidal method was employed for all incremental trapezoids arising from increasing concentrations and the logarithmic trapezoidal method was used for those arising from decreasing concentrations (linear up/log down method). Nominal blood sampling times were used in the analysis. […] Individual BQL results were set to zero for all calculations. No animals were excluded from the analysis.

[4] = both sexes, Beagle, dog, plasma, po, 30 mg, PO capsules
[5] = both sexes, Beagle, dog, plasma, sc, 15 mg
[6] = male, Hsd: Sprague Dawley, rat, plasma, iv, 10 mg/kg
[7] = rats, oral 30 mg/kg vs IV 10 mg/kg

Plasma Bumetanide Dibenzylamide concentration ([1]; IN, 15 mg, 24 h): 3.15 ng/mL and 2.07 ng/mL and 1.59 ng/mL | Plasma Bumetanide Dibenzylamide concentration ([1]; IN, 15 mg, 24 h, mean): 2.31 ng/mL | CL/F ([1]; IN, 15 mg, mean): 72.5 L/h | Mean concentrations of Bumetanide Dibenzylamide ([1]; IR, 30 mg, at all times after dosing): less than 10 ng/mL | t½ ([1]; PO capsules, 30 mg): 5.62 h and 6.79 h and 5.10 h | Plasma Bumetanide Dibenzylamide concentration ([1]; PO capsules, 30 mg, 2 h): 280 ng/mL and 158 ng/mL and 175 ng/mL | Plasma Bumetanide Dibenzylamide concentration ([1]; PO capsules, 30 mg, 2 h, mean): 218 ng/mL | Plasma Bumetanide Dibenzylamide concentration ([1]; PO capsules, 30 mg, 4 h): 85.3 ng/mL and 68.7 ng/mL and 56.9 ng/mL | Plasma Bumetanide Dibenzylamide concentration ([1]; PO capsules, 30 mg, 4 h, mean): 76.7 ng/mL | Plasma Bumetanide Dibenzylamide concentration ([1]; PO capsules, 30 mg, 8 h): 21.2 ng/mL and 21.9 ng/mL and 15.7 ng/mL | Plasma Bumetanide Dibenzylamide concentration ([1]; PO capsules, 30 mg, 8 h, mean): 20.1 ng/mL | Plasma Bumetanide Dibenzylamide concentration ([1]; PO capsules, 30 mg, 12 h): 8.65 ng/mL and 10.5 ng/mL and 7.91 ng/mL | Plasma Bumetanide Dibenzylamide concentration ([1]; PO capsules, 30 mg, 12 h, mean): 9.34 ng/mL | Plasma Bumetanide Dibenzylamide concentration ([1]; PO capsules, 30 mg, 24 h): 2.86 ng/mL and 2.84 ng/mL and 2.83 ng/mL | Plasma Bumetanide Dibenzylamide concentration ([1]; PO capsules, 30 mg, 24 h, mean): 2.71 ng/mL | AUClast ([1]; PO capsules, 30 mg, mean): 791 ng·h/mL | CL/F ([1]; PO capsules, 30 mg, mean): 37.9 L/h | t½ ([1]; PO capsules, 30 mg, mean): 5.85 h | t½ ([1]; SC, 15 mg): 36.2 h and 22.2 h and 19.1 h | Plasma Bumetanide Dibenzylamide concentration ([1]; SC, 15 mg, 0 h): 1.65 ng/mL and 2.39 ng/mL and 1.55 ng/mL | Plasma Bumetanide Dibenzylamide concentration ([1]; SC, 15 mg, 0 h, mean): 1.75 ng/mL | Plasma Bumetanide Dibenzylamide concentration ([1]; SC, 15 mg, 0.5 h): 2.76 ng/mL and 3.42 ng/mL and 1.81 ng/mL | Plasma Bumetanide Dibenzylamide concentration ([1]; SC, 15 mg, 0.5 h, mean): 2.52 ng/mL | Plasma Bumetanide Dibenzylamide concentration ([1]; SC, 15 mg, 8 h): 4.54 ng/mL and 7.47 ng/mL and 4.14 ng/mL | Plasma Bumetanide Dibenzylamide concentration ([1]; SC, 15 mg, 8 h, mean): 5.71 ng/mL | Plasma Bumetanide Dibenzylamide concentration ([1]; SC, 15 mg, 12 h): 3.35 ng/mL and 5.77 ng/mL and 3.22 ng/mL | Plasma Bumetanide Dibenzylamide concentration ([1]; SC, 15 mg, 12 h, mean): 4.36 ng/mL | Plasma Bumetanide Dibenzylamide concentration ([1]; SC, 15 mg, 24 h): 2.43 ng/mL and 4.30 ng/mL and 2.90 ng/mL | Plasma Bumetanide Dibenzylamide concentration ([1]; SC, 15 mg, 24 h, mean): 3.33 ng/mL | AUClast ([1]; SC, 15 mg, mean): 113 ng·h/mL | CL/F ([1]; SC, 15 mg, mean): 68.2 L/h | t½ ([1]; SC, 15 mg, mean): 24.8 h | CL/F ([1]; SL, 30 mg): 1690 L/h | Tmax ([1]; SL, 30 mg): 1.00 h | Tmax ([1]; SL, 30 mg, mean): 1.50 h | AUC(0-inf) ([1]; both sexes, Beagle, dog, plasma, 30 mg, IR): 55.1 ng·h/mL | Cmax ([1]; both sexes, Beagle, dog, plasma, 30 mg, IR, 30 mg, read-out: mean Cmax): 8.44 ng/mL | AUC(0-inf) ([1]; both sexes, Beagle, dog, plasma, 30 mg, SL): 17.7 ng·h/mL | Tmax ([1]; both sexes, Beagle, dog, plasma, 30 mg, SL, 30 mg, read-out: Tmax): 2 h | half-life ([1]; both sexes, Beagle, dog, plasma, 30 mg, SL, 30 mg): 316 min | AUC(0-inf) ([1]; both sexes, Beagle, dog, plasma, inhaled or intranasal, 15 mg, IN): 211 ng·h/mL | AUC(0-inf) [1, 4]: 814 ng·h/mL | AUC(0-t) [1, 4]: 956 ng·h/mL | Cmax ([1]; both sexes, Beagle, dog, plasma, po, 30 mg, PO capsules, 30 mg, read-out: Cmax): 218 ng/mL | Tmax ([1]; both sexes, Beagle, dog, plasma, po, 30 mg, PO capsules, 30 mg, read-out: Tmax): 2 h | half-life ([1]; both sexes, Beagle, dog, plasma, po, 30 mg, PO capsules, 30 mg): 353 min | AUC(0-inf) [1, 5]: 231 ng·h/mL | AUC(0-t) [1, 5]: 153 ng·h/mL | half-life ([1]; both sexes, Beagle, dog, plasma, sc, 15 mg, SC, 15 mg): 1290 min | maximum concentration of Bumetanide Dibenzylamide ([2]; rectal gel, about 20% water): about 2.4% | maximum concentration of Bumetanide Dibenzylamide ([2]; rectal paste, no water): about 4.16% | logP (physchem): ~5.9 | Plasma Bumetanide Dibenzylamide concentration ([3]; male rats, IV bolus 10 mg/kg, 1 h, 10 mg/kg): 1040 ng/mL | AUC(0-inf) [3, 6]: 3730 ng·h/mL | Vd [3, 6]: 10.1 L/kg | clearance [3, 6]: 44.7 mL/min/kg | C0 ([3]; male, Hsd: Sprague Dawley, rat, plasma, iv, 10 mg/kg, C0, rats, IV bolus 10 mg/kg): 2780 ng/mL | concentration at 0.08 h ([3]; male, Hsd: Sprague Dawley, rat, plasma, iv, 10 mg/kg, Plasma Bumetanide Dibenzylamide concentration, male rats, IV bolus 10 mg/kg, 0.08 h): 2510 ng/mL | concentration at 4 h ([3]; male, Hsd: Sprague Dawley, rat, plasma, po, 30 mg/kg, Plasma Bumetanide Dibenzylamide concentration, male rats, oral 30 mg/kg, 4 h): 4.56 ng/mL | concentration at 1 h ([3]; male, Sprague Dawley, rat, plasma, iv, 10 mg/kg, Plasma Bumetanide Dibenzylamide concentration, male rats, IV bolus 10 mg/kg, 1 h): 993 ng/mL | C0 ([3]; rats, IV bolus 10 mg/kg, 10 mg/kg): 2720 ng/mL | Fabs (%) [3, 7]: 0.34% and 0.32% | Fabs (ratio) [3, 7]: 0.0034 and 0.0032
SMILES: CCCCNc1cc(C(=O)N(Cc2ccccc2)Cc2ccccc2)cc(S(N)(=O)=O)c1Oc1ccccc1 [Bumetanide Dibenzylamide, N, N-dibenzyl 3-aminosulfonyl-5-butylamino-4-phenoxybenzamide]
AUCinf ([1]; IN, 15 mg): 234 ng·h/mL and 224 ng·h/mL and 164 ng·h/mL and 221 ng·h/mL | CL/F ([1]; IN, 15 mg): 64.1 L/h and 66.8 L/h and 91.5 L/h and 67.7 L/h | AUCinf ([1]; PO capsules, 30 mg): 980 ng·h/mL and 698 ng·h/mL and 666 ng·h/mL and 910 ng·h/mL | AUClast ([1]; PO capsules, 30 mg): 675 ng·h/mL and 639 ng·h/mL and 893 ng·h/mL | CL/F ([1]; PO capsules, 30 mg): 30.6 L/h and 43.0 L/h and 45.0 L/h and 33.0 L/h | Cmax ([1]; PO capsules, 30 mg): 280 ng/mL and 158 ng/mL and 175 ng/mL and 259 ng/mL | AUCinf ([1]; SC, 15 mg): 286 ng·h/mL and 247 ng·h/mL and 158 ng·h/mL | AUClast ([1]; SC, 15 mg): 79.8 ng·h/mL and 129 ng·h/mL and 91.3 ng·h/mL | CL/F ([1]; SC, 15 mg): 52.4 L/h and 64.8 L/h and 60.7 L/h and 94.7 L/h | adverse reactions ([1]; all routes, 15 or 30 mg): no adverse reactions are noted
